# In patent US4769369A, “Anti-allergy 1(2H)-phthalazinones” (Pennwalt Corporation, priority 1986, dated 1988):
# Counter-ions that a name gives are not always drawn.
# Key:
# bradykinin = experiment: Rat Allergic Mediator Induced Dermal Vascular Permeability Test, bradykinin challenge; type: in vivo
# Description: (§1) Ten minutes later, the animals are challenged by intradermally injecting 0.1 ml of a water solution of either serotonin (1 μg/ml), histamine (20 μg/ml) or bradykinin (10 μg/ml) into separate sites on the back. Five minutes following challenge the animals are killed, the skin retracted, and the mean diameter of the blue wheal and flare reaction is calculated as the difference in mean diameter between a saline control and the drug treated group, divided by the control diameter, and then multiplied times 100. Statistical analysis of the data is done using a Student T-test program. See Tables 4 (ip administration of test compound) and 5 (po administration of test compound) for results obtained with the rat allergic mediator induced dermal vascular permeability test. (Set: Serotonin; His: histamine; Bk: bradykinin)
# serotonin = experiment: Rat Allergic Mediator Induced Dermal Vascular Permeability Test, serotonin challenge; type: in vivo
# Description: as §1
# [1] = test system: LTC4 induced contractions of the guinea pig ileum; experiment: Guinea Pig Ileum Test: inhibition of LTC4-induced guinea pig smooth muscle contractions; type: cell-based; settings: Cavia porcellus, 6 nanomoles LTC4
# Description: Four replicate, small pieces of guinea pig ileum were suspended in Kreb's physiological salt solution in a 10 ml tissue bath to a gram tension of approximately 1.0. These pieces of tissue were then chemically stimulated with 6 microliters of purified leukotriene C4 (LTC4) yielding a final concentration in the bath of 6 nanomoles. Responses (tissue contraction) were measured isometrically using a Harvard transducer and a Beckman recorder. Upon addition of the LTC4, the tissue was allowed to sit for approximately 15-30 minutes to reach maximal stimulation. The test compound dissolved in a maximum volume of 100 microliters of either saline, dimethylsulfoxide or ethanol was then added to the tissue preparation and the change in gram tension was recorded.
# [2] = test system: Active Anaphylaxis Response in Male, Sprague Dawley Rats; experiment: Rat Anaphylaxis Test (active anaphylaxis, paw edema); type: in vivo; settings: for Paw Volume Mean ± S.E.: in mmHg (unit assumed)
# Description: In the rat anaphylaxis test, groups consisting of 15-20 rats are intraperitoneally sensitized on day zero with 500 μg of bovine serum albumin-absorbed alum admixed with 2×10^10 killed Bordatella pertussis vaccine organisms. Fourteen days later, the test compound suspended in 0.5 to 1.0 ml of 1% Cleargel or saline (0.85% NaCl in H2 O) is administered ip or po and, one hour later, the right hind paw is injected subcutaneously with 100 μg of bovine serum albumin dissolved in 0.1 ml of saline. The paw volume is measured using a mercury plethysmometer prior to drug administration and 90 minutes post antigenic challenge. The present inhibition of edema is calculated as the difference in volume between the control and drug treated groups, divided by the control volume, and then multiplied times 100. The positive control drug, theophylline (90 mg/kg, po) is included in each assay. Statistical analysis of the data is done using an analysis of variance program. See Tables 2 and 3 for results obtained with this test.
# In Tables 2 and 3, and elsewhere in this application, PR 948-257C stands for trans-6-[2-(4-methoxyphenyl)ethenyl]-2-[3-(dimethylamino)propyl]-phthalazin-1(2H)-one hydrobromide.
# histamine = experiment: Rat Allergic Mediator Induced Dermal Vascular Permeability Test, histamine challenge; type: in vivo
# Description: as §1, with “See Tables 4 (ip administration of test compound) and 5 (po administration of test compound) for results obtained with the rat allergic mediator induced dermal vascular permeability test.” left out
# [3] = Table 4 (ip administration of test compound), 1 mg/kg
# [4] = Table 5 (po administration of test compound), 1 mg/kg
# [5] = Table 2, first group set, 50 mg/kg ip
# [6] = Table 2, first group set, 75 mg/kg ip
# [7] = Table 2, first group set, 100 mg/kg ip
# [8] = Table 2, second group set, 6.25 mg/kg ip
# [9] = Table 2, second group set, 12.5 mg/kg ip
# [10] = Table 2, second group set, 25 mg/kg ip
# [11] = Table 2, third group set, 2.5 mg/kg ip
# [12] = Table 2, third group set, 4 mg/kg ip
# [13] = Table 2, third group set, 6 mg/kg ip
# [14] = Table 2, first group set, 90 mg/kg po, N 17
# [15] = Table 2, second group set, 90 mg/kg po, N 20
# [16] = Table 2, third group set, 90 mg/kg po, N 29
compound,measurement,setting,value
"CN1CCC(=C2c3ccccc3C=Cc3ccccc32)CC1 [Cyproheptadine, cyproheptadine, reference compound]","% Inhibition, Bk",bradykinin; [3],60.6%
same,"Wheal Measurement, Bk",bradykinin; [3],4.3 mm
same,"% Inhibition, Bk",bradykinin; [4],86.8%
same,"Wheal Measurement, Bk",bradykinin; [4],1.2 mm
same,"% Inhibition, Ser",serotonin; [3],74.8%
same,"Wheal Measurement, Ser",serotonin; [3],2.8 mm
same,"% Inhibition, Ser",serotonin; [4],95.1%
same,"Wheal Measurement, Ser",serotonin; [4],0.5 mm
"COc1ccc(/C=C/c2ccc3c(=O)n(CCCN4CCCCC4)ncc3c2)cc1 [Example II, Trans-6-[2-(4-methoxyphenyl)ethenyl]-2-(3-piperidinopropyl)phthalazin-1(2H)-one hydrobromide]",IC50,[1],3.4 µM
"COc1ccc(/C=C/c2ccc3c(=O)n(CCN(C)C)ncc3c2)cc1 [Example III, Trans-6-[2-(4-methoxyphenyl)ethenyl]-2-[2-(dimethylamino)ethyl]-phthalazin-1(2H)-one hydrobromide]",IC50,[1],16.6 µM
"COc1ccc(/C=C/c2ccc3c(=O)n(CCN4CCOCC4)ncc3c2)cc1 [Example IV, Trans-6-[2-(4-methoxyphenyl)ethenyl]-2-(2-morpholinoethyl)phthalazin-1(2H)-one hydrobromide]",IC50,[1],0.1 µM
"COc1ccc(/C=C/c2ccc3c(=O)n(CCCCN(C)C)ncc3c2)cc1 [Example IX, Trans-6-[2-(4-methoxyphenyl)ethenyl]-2-[4-dimethylamino)butyl]phthalazin-1(2H)-one bromide]",IC50,[1],10 µM
"COc1ccc(CCc2ccc3c(=O)n(CCCN(C)C)ncc3c2)cc1 [Example VI, 6-[2-(4-methoxyphenyl)ethyl]-2-[3-(dimethylamino)propyl]phthalazin-1(2H)-on]",IC50,[1],16.8 µM
"COc1ccc(/C=C\c2ccc3c(=O)n(CCCN(C)C)ncc3c2)cc1 [Example X, Cis-6-[2-(4-methoxyphenyl)ethenyl]-2-[3-dimethylaminopropyl]phthalazin-1(2H)-one cyclohexylsulfamate]",IC50,[1],10.5 µM
"CSc1ccc(/C=C/c2ccc3c(=O)n(CCCN(C)C)ncc3c2)cc1 [Example XI, Trans-6-[2-[4-(methylthio)phenyl]ethenyl]-2-[3-(dimethylamino)propyl]phthalazin-1(2H)-one]",IC50,[1],10 µM
"Br.COc1ccc(/C=C/c2ccc3c(=O)n(CCCN(C)C)ncc3c2)cc1 [Example XII, Trans-6-[2-(4-methoxyphenyl)ethenyl]-2-[3-(dimethylamino)propyl]-phthalazin-1(2H)-one hydrobromide]",IC50,[1],13.6 µM
same,"% Inhibition, Bk","bradykinin; Table 4, 12.5 mg/kg ip",32.1%
same,"Wheal Measurement, Bk","bradykinin; Table 4, 12.5 mg/kg ip",7.4 mm
same,"% Inhibition, Bk","bradykinin; Table 4, 25 mg/kg ip",47.7%
same,"Wheal Measurement, Bk","bradykinin; Table 4, 25 mg/kg ip",5.7 mm
same,"% Inhibition, Bk","bradykinin; Table 4, 50 mg/kg ip",74.3%
same,"Wheal Measurement, Bk","bradykinin; Table 4, 50 mg/kg ip",2.8 mm
same,"% Inhibition, Bk","bradykinin; Table 5, 12.5 mg/kg po",12.1%
same,"Wheal Measurement, Bk","bradykinin; Table 5, 12.5 mg/kg po",8.0 mm
same,"% Inhibition, Bk","bradykinin; Table 5, 25 mg/kg po",48.4%
same,"Wheal Measurement, Bk","bradykinin; Table 5, 25 mg/kg po",4.7 mm
same,"% Inhibition, Bk","bradykinin; Table 5, 50 mg/kg po",63.8%
same,"Wheal Measurement, Bk","bradykinin; Table 5, 50 mg/kg po",3.3 mm
same,% Inhibition,[2]; [5],56%
same,Paw Volume Mean ± S.E.,[2]; [5],1.7 ± 1.3
same,% Inhibition,[2]; [6],83%
same,Paw Volume Mean ± S.E.,[2]; [6],0.7 ± 0.8
same,% Inhibition,[2]; [7],91%
same,Paw Volume Mean ± S.E.,[2]; [7],0.4 ± 0.8
same,% Inhibition,[2]; [8],48%
same,Paw Volume Mean ± S.E.,[2]; [8],2.2 ± 1.9
same,% Inhibition,[2]; [9],52%
same,Paw Volume Mean ± S.E.,[2]; [9],2.1 ± 1.8
same,% Inhibition,[2]; [10],55%
same,Paw Volume Mean ± S.E.,[2]; [10],1.9 ± 1.4
same,% Inhibition,[2]; [11],+11%
same,Paw Volume Mean ± S.E.,[2]; [11],4.7 ± 2.8
same,% Inhibition,[2]; [12],+14%
same,Paw Volume Mean ± S.E.,[2]; [12],4.9 ± 2.3
same,% Inhibition,[2]; [13],12%
same,Paw Volume Mean ± S.E.,[2]; [13],3.7 ± 2.6
same,% Inhibition,"[2]; Table 3, 50 mg/kg po",14%
same,Paw Volume ± S.E.,"[2]; Table 3, 50 mg/kg po",3.10 ± .55 mm of Hg
same,% Inhibition,"[2]; Table 3, 75 mg/kg po",37%
same,Paw Volume ± S.E.,"[2]; Table 3, 75 mg/kg po",2.26 ± .32 mm of Hg
same,% Inhibition,"[2]; Table 3, 100 mg/kg po",54%
same,Paw Volume ± S.E.,"[2]; Table 3, 100 mg/kg po",1.65 ± .36 mm of Hg
same,"% Inhibition, Ser","serotonin; Table 4, 12.5 mg/kg ip",26.1%
same,"Wheal Measurement, Ser","serotonin; Table 4, 12.5 mg/kg ip",8.2 mm
same,"% Inhibition, Ser","serotonin; Table 4, 25 mg/kg ip",51.4%
same,"Wheal Measurement, Ser","serotonin; Table 4, 25 mg/kg ip",5.4 mm
same,"% Inhibition, Ser","serotonin; Table 4, 50 mg/kg ip",68.5%
same,"Wheal Measurement, Ser","serotonin; Table 4, 50 mg/kg ip",3.5 mm
same,"% Inhibition, Ser","serotonin; Table 5, 12.5 mg/kg po",23.3%
same,"Wheal Measurement, Ser","serotonin; Table 5, 12.5 mg/kg po",7.9 mm
same,"% Inhibition, Ser","serotonin; Table 5, 25 mg/kg po",42.7%
same,"Wheal Measurement, Ser","serotonin; Table 5, 25 mg/kg po",5.9 mm
same,"% Inhibition, Ser","serotonin; Table 5, 50 mg/kg po",61.1%
same,"Wheal Measurement, Ser","serotonin; Table 5, 50 mg/kg po",4.0 mm
same,"% Inhibition, His","histamine; Table 4, 12.5 mg/kg ip",26.8%
same,"Wheal Measurement, His","histamine; Table 4, 12.5 mg/kg ip",8.2 mm
same,"% Inhibition, His","histamine; Table 4, 25 mg/kg ip",50.0%
same,"Wheal Measurement, His","histamine; Table 4, 25 mg/kg ip",5.6 mm
same,"% Inhibition, His","histamine; Table 4, 50 mg/kg ip",75.9%
same,"Wheal Measurement, His","histamine; Table 4, 50 mg/kg ip",2.7 mm
same,"% Inhibition, His","histamine; Table 5, 12.5 mg/kg po",17%
same,"Wheal Measurement, His","histamine; Table 5, 12.5 mg/kg po",8.3 mm
same,"% Inhibition, His","histamine; Table 5, 25 mg/kg po",57%
same,"Wheal Measurement, His","histamine; Table 5, 25 mg/kg po",4.3 mm
same,"% Inhibition, His","histamine; Table 5, 50 mg/kg po",71%
same,"Wheal Measurement, His","histamine; Table 5, 50 mg/kg po",2.9 mm
"CN(C)CCn1ncc2cc(/C=C/c3ccc(O)cc3)ccc2c1=O [Example XIV, Trans-6-[2-(4-Hydroxyphenyl)ethenyl]-2-(2-dimethylaminoethyl)-1(2H)-phthalazinone hydrochloride]",IC50,[1],31.6 µM
"Cn1c(=O)c2[nH]cnc2n(C)c1=O [Theophylline, theophylline, reference compound]",% Inhibition,[2]; [14],76%
same,Paw Volume Mean ± S.E.,[2]; [14],0.9 ± 0.7
same,% Inhibition,[2]; [15],92%
same,Paw Volume Mean ± S.E.,[2]; [15],0.4 ± 0.6
same,% Inhibition,[2]; [16],87%
same,Paw Volume Mean ± S.E.,[2]; [16],0.5 ± 0.5
same,% Inhibition,"[2]; Table 3, 90 mg/kg po",82%
same,Paw Volume ± S.E.,"[2]; Table 3, 90 mg/kg po",0.65 ± .2 mm of Hg
